From PubChem BioAssay (NCI)
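GI50 = concentration required for 50% inhibition of growth. TGI: concentration producing complete growth inhibition.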

How the values were obtained:
Experiment in all cases: inhibition of tumour cell growth, NCI panel, 384-well format
SF-539 CNS = system: SF-539 CNS
HL-60(TB) leukemia = system: HL-60(TB) leukemia
SNB-19 CNS = system: SNB-19 CNS
RPMI-8226 leukemia = system: RPMI-8226 leukemia
PC-3 prostate = system: PC-3 prostate
DU-145 prostate = system: DU-145 prostate
MOLT-4 leukemia = system: MOLT-4 leukemia
HCT-15 colon = system: HCT-15 colon
HS 578T breast = system: HS 578T breast
OVCAR-5 ovarian = system: OVCAR-5 ovarian
EKVX NSCLC = system: EKVX NSCLC
NCI/ADR-RES ovarian = system: NCI/ADR-RES ovarian
UACC-257 melanoma = system: UACC-257 melanoma
SN12C renal = system: SN12C renal
MDA-MB-231 breast = system: MDA-MB-231 breast
ACHN renal = system: ACHN renal
SF-268 CNS = system: SF-268 CNS
HCC-2998 colon = system: HCC-2998 colon
TK-10 renal = system: TK-10 renal
MALME-3M melanoma = system: MALME-3M melanoma
COLO 205 colon = system: COLO 205 colon
KM12 colon = system: KM12 colon
SNB-75 CNS = system: SNB-75 CNS
HOP-92 NSCLC = system: HOP-92 NSCLC
MDA-MB-468 breast = system: MDA-MB-468 breast
NCI-H460 NSCLC = system: NCI-H460 NSCLC
HT29 colon = system: HT29 colon
NCI-H322M lung = system: NCI-H322M lung
UO-31 renal = system: UO-31 renal
T-47D breast = system: T-47D breast
SF-295 CNS = system: SF-295 CNS
BT-549 breast = system: BT-549 breast
LOX IMVI melanoma = system: LOX IMVI melanoma
OVCAR-4 ovarian = system: OVCAR-4 ovarian
OVCAR-3 ovarian = system: OVCAR-3 ovarian
MCF7 breast = system: MCF7 breast
NCI-H23 lung = system: NCI-H23 lung
SK-MEL-5 melanoma = system: SK-MEL-5 melanoma
RXF 393 renal = system: RXF 393 renal
UACC-62 melanoma = system: UACC-62 melanoma
SW-620 colon = system: SW-620 colon
K-562 leukemia = system: K-562 leukemia
U251 glioblastoma = system: U251 glioblastoma
NCI-H226 lung = system: NCI-H226 lung
CCRF-CEM leukemia = system: CCRF-CEM leukemia
A549 NSCLC = system: A549 NSCLC
CAKI-1 renal = system: CAKI-1 renal

CC(=O)N1CC(F)(F)c2c(Sc3ncc(N4CCC5(CC4)COC[C@H]5N)nc3N)cccc21
GI50 (SF-539 CNS): 8.31 µM | TGI (SF-539 CNS): 21.1 µM | GI50 (HL-60(TB) leukemia): 10 µM | TGI (HL-60(TB) leukemia): 21.6 µM | GI50 (SNB-19 CNS): 13.6 µM | TGI (SNB-19 CNS): 41.7 µM | GI50 (RPMI-8226 leukemia): 3.87 µM | TGI (RPMI-8226 leukemia): 15.5 µM | GI50 (PC-3 prostate): 13.4 µM | TGI (PC-3 prostate): 48.6 µM | GI50 (DU-145 prostate): 19.1 µM | TGI (DU-145 prostate): 63.1 µM | GI50 (MOLT-4 leukemia): 14.1 µM | TGI (MOLT-4 leukemia): 27.2 µM | GI50 (HCT-15 colon): 16.9 µM | TGI (HCT-15 colon): 31.8 µM | GI50 (HS 578T breast): 13.9 µM | TGI (HS 578T breast): 29.8 µM | GI50 (OVCAR-5 ovarian): 18.1 µM | TGI (OVCAR-5 ovarian): 57.3 µM | GI50 (EKVX NSCLC): 6.02 µM | TGI (EKVX NSCLC): 43.1 µM | GI50 (NCI/ADR-RES ovarian): 16.3 µM | TGI (NCI/ADR-RES ovarian): 56.8 µM | GI50 (UACC-257 melanoma): 14.4 µM | TGI (UACC-257 melanoma): 27.6 µM | GI50 (SN12C renal): 11.2 µM | TGI (SN12C renal): 50.9 µM | GI50 (MDA-MB-231 breast): 15.3 µM | TGI (MDA-MB-231 breast): 41.4 µM | GI50 (ACHN renal): 6.61 µM | TGI (ACHN renal): 27.1 µM | GI50 (SF-268 CNS): 14.4 µM | TGI (SF-268 CNS): 48.7 µM | GI50 (HCC-2998 colon): 17.3 µM | TGI (HCC-2998 colon): 32.1 µM | GI50 (TK-10 renal): 4.9 µM | TGI (TK-10 renal): 19.2 µM | GI50 (MALME-3M melanoma): 8.55 µM | TGI (MALME-3M melanoma): 20.8 µM | GI50 (COLO 205 colon): 16.6 µM | TGI (COLO 205 colon): 32 µM | GI50 (KM12 colon): 2.97 µM | TGI (KM12 colon): 13.5 µM | GI50 (SNB-75 CNS): 5.83 µM | TGI (SNB-75 CNS): 29.1 µM | GI50 (HOP-92 NSCLC): 2.17 µM | TGI (HOP-92 NSCLC): 14.2 µM | GI50 (MDA-MB-468 breast): 1.52 µM | TGI (MDA-MB-468 breast): 8.19 µM | GI50 (NCI-H460 NSCLC): 18.6 µM | TGI (NCI-H460 NSCLC): 34.6 µM | GI50 (HT29 colon): 3.75 µM | TGI (HT29 colon): 12.7 µM | GI50 (NCI-H322M lung): 2.08 µM | TGI (NCI-H322M lung): 27.7 µM | GI50 (UO-31 renal): 6.39 µM | TGI (UO-31 renal): 20.3 µM | GI50 (T-47D breast): 11.5 µM | TGI (T-47D breast): 26.3 µM | GI50 (SF-295 CNS): 15.5 µM | TGI (SF-295 CNS): 31.2 µM | GI50 (BT-549 breast): 4.68 µM | TGI (BT-549 breast): 22.1 µM | GI50 (LOX IMVI melanoma): 12.4 µM | TGI (LOX IMVI melanoma): 25 µM | GI50 (OVCAR-4 ovarian): 9.78 µM | TGI (OVCAR-4 ovarian): 35.9 µM | GI50 (OVCAR-3 ovarian): 14.1 µM | TGI (OVCAR-3 ovarian): 30.7 µM | GI50 (MCF7 breast): 0.0453 µM | TGI (MCF7 breast): 11.4 µM | GI50 (NCI-H23 lung): 2.06 µM | TGI (NCI-H23 lung): 15.2 µM | GI50 (SK-MEL-5 melanoma): 15.7 µM | TGI (SK-MEL-5 melanoma): 29.2 µM | GI50 (RXF 393 renal): 2.22 µM | TGI (RXF 393 renal): 8.72 µM | GI50 (UACC-62 melanoma): 12.5 µM | TGI (UACC-62 melanoma): 25.6 µM | GI50 (SW-620 colon): 11.5 µM | TGI (SW-620 colon): 23.9 µM | GI50 (K-562 leukemia): 0.774 µM | TGI (K-562 leukemia): 13.9 µM | GI50 (U251 glioblastoma): 12.7 µM | TGI (U251 glioblastoma): 26.6 µM | GI50 (NCI-H226 lung): 2.48 µM | TGI (NCI-H226 lung): 41.9 µM | GI50 (CCRF-CEM leukemia): 15.3 µM | TGI (CCRF-CEM leukemia): 28.6 µM | GI50 (A549 NSCLC): 14.1 µM | TGI (A549 NSCLC): 35.2 µM | GI50 (CAKI-1 renal): 2.74 µM | TGI (CAKI-1 renal): 21.1 µM

Cc1nc(NC(=O)N2CCC[C@H]2C(N)=O)sc1-c1ccnc(C(C)(C)C(F)(F)F)c1
GI50 (SF-539 CNS): 12.5 µM | TGI (SF-539 CNS): 38.3 µM | GI50 (HL-60(TB) leukemia): 0.727 µM | TGI (HL-60(TB) leukemia): 9.24 µM | GI50 (SNB-19 CNS): 28.6 µM | TGI (SNB-19 CNS): > 100 µM | GI50 (RPMI-8226 leukemia): 7.05 µM | TGI (RPMI-8226 leukemia): 21.7 µM | GI50 (PC-3 prostate): 5.73 µM | TGI (PC-3 prostate): 25.4 µM | GI50 (DU-145 prostate): 10.8 µM | TGI (DU-145 prostate): 33.7 µM | GI50 (MOLT-4 leukemia): 0.857 µM | TGI (MOLT-4 leukemia): 4.24 µM | GI50 (HCT-15 colon): 2.74 µM | TGI (HCT-15 colon): 27.8 µM | GI50 (HS 578T breast): 3.7 µM | TGI (HS 578T breast): 18.4 µM | GI50 (OVCAR-5 ovarian): 5.5 µM | TGI (OVCAR-5 ovarian): 37.4 µM | GI50 (EKVX NSCLC): 5.55 µM | TGI (EKVX NSCLC): 24.8 µM | GI50 (NCI/ADR-RES ovarian): 16.5 µM | TGI (NCI/ADR-RES ovarian): 71.9 µM | GI50 (UACC-257 melanoma): 23 µM | TGI (UACC-257 melanoma): 70.3 µM | GI50 (SN12C renal): 14.7 µM | TGI (SN12C renal): 80.1 µM | GI50 (MDA-MB-231 breast): 13.5 µM | TGI (MDA-MB-231 breast): 48.7 µM | GI50 (ACHN renal): 9.43 µM | TGI (ACHN renal): 48.7 µM | GI50 (SF-268 CNS): 12.9 µM | TGI (SF-268 CNS): 61.2 µM | GI50 (HCC-2998 colon): 6.67 µM | TGI (HCC-2998 colon): 25 µM | GI50 (TK-10 renal): 4.71 µM | TGI (TK-10 renal): 28.5 µM | GI50 (MALME-3M melanoma): 6.66 µM | TGI (MALME-3M melanoma): 29.4 µM | GI50 (COLO 205 colon): 7.15 µM | TGI (COLO 205 colon): 43.4 µM | GI50 (KM12 colon): 25.8 µM | TGI (KM12 colon): > 92.8 µM | GI50 (SNB-75 CNS): 1.17 µM | TGI (SNB-75 CNS): 8.53 µM | GI50 (HOP-92 NSCLC): 3.09 µM | TGI (HOP-92 NSCLC): 20.6 µM | GI50 (MDA-MB-468 breast): 1.26 µM | TGI (MDA-MB-468 breast): 7.64 µM | GI50 (NCI-H460 NSCLC): 2.13 µM | TGI (NCI-H460 NSCLC): 43 µM | GI50 (HT29 colon): 1.58 µM | TGI (HT29 colon): 33.4 µM | GI50 (NCI-H322M lung): 4.6 µM | TGI (NCI-H322M lung): 26.6 µM | GI50 (UO-31 renal): 8.46 µM | TGI (UO-31 renal): 58.5 µM | GI50 (T-47D breast): 0.0839 µM | TGI (T-47D breast): 0.592 µM | GI50 (SF-295 CNS): 9.16 µM | TGI (SF-295 CNS): 33.5 µM | GI50 (BT-549 breast): 5.81 µM | TGI (BT-549 breast): 28.6 µM | GI50 (LOX IMVI melanoma): 7.55 µM | TGI (LOX IMVI melanoma): 28 µM | GI50 (OVCAR-4 ovarian): 7.73 µM | TGI (OVCAR-4 ovarian): 40.7 µM | GI50 (OVCAR-3 ovarian): 6.07 µM | TGI (OVCAR-3 ovarian): 27.8 µM | GI50 (MCF7 breast): 0.205 µM | TGI (MCF7 breast): 17.8 µM | GI50 (NCI-H23 lung): 12.1 µM | TGI (NCI-H23 lung): 44.4 µM | GI50 (SK-MEL-5 melanoma): 6.54 µM | TGI (SK-MEL-5 melanoma): 14.9 µM | GI50 (RXF 393 renal): 5.57 µM | TGI (RXF 393 renal): 22.5 µM | GI50 (UACC-62 melanoma): 10.2 µM | TGI (UACC-62 melanoma): 24 µM | GI50 (SW-620 colon): 8.53 µM | TGI (SW-620 colon): 40.2 µM | GI50 (K-562 leukemia): 15.6 µM | TGI (K-562 leukemia): 35.1 µM | GI50 (U251 glioblastoma): 10.3 µM | TGI (U251 glioblastoma): 39.5 µM | GI50 (NCI-H226 lung): 8.88 µM | TGI (NCI-H226 lung): 32.5 µM | GI50 (CCRF-CEM leukemia): 3.51 µM | TGI (CCRF-CEM leukemia): 15.6 µM | GI50 (A549 NSCLC): 6.07 µM | TGI (A549 NSCLC): 23.7 µM | GI50 (CAKI-1 renal): 7.1 µM | TGI (CAKI-1 renal): 26.9 µM
